Reference: US11464750B2, “Anticancer agent and use thereof” (priority 2017, dated 2022)

Legend:
Assay type in all cases: cell-based, human
BALL-1 cells = assay: MTT assay, BALL-1 cells; conditions: 0.01, 0.05, 0.1, 0.5, and 1 μM, 48 hours
Experimental: BALL-1 cells of a cell line derived from […], TKG0210 cells of a human myeloid leukemia cell line, and TKG0377 cells of a human T cell acute leukemia cell line were seeded in 96-well plates at 2.5×10^4 cells/well/100 μL, and cultured for 48 hours in the presence of 3EZ,20Ac-ingenol at final concentrations of 0 (control), 0.5, 1, 5, and 10 μM. Subsequently, cell proliferation was examined by MTT assay using a Cell Proliferation Kit 1 (Roche Applied Science).
BALL-1 cells were exposed to 3EZ,20Ac-ingenol, 3EE,20Ac-ingenol, 20Ac-ingenol, and ingenol at concentrations of 0.01, 0.05, 0.1, 0.5, and 1 μM for 48 hours. Thereafter, cell proliferation was examined by MTT assay. Cells that were not exposed to the chemical were used as controls. The chemical formulas of 3EZ,20Ac-ingenol, 3EE,20Ac-ingenol, and 20Ac-ingenol are as described above. The chemical formula of ingenol is shown in the following Formula (7).

JeKo-1 cells = assay: MTT assay, JeKo-1 cells; conditions: 48 hours
Experimental: (§1) JeKo-1 cells of a cell line derived from a human mantle cell lymphoma were seeded in a 96-well plate at 1×10^4 cells/well/100 μL. In addition, Panc-1 cells of a cell line derived from a human pancreatic cancer were seeded in a 96-well plate at 3×10^3 cells/well/100 μL.
(§2) Subsequently, 3EZ,20Ac-ingenol at final concentrations of 0 (control), 0.1, 0.5, 1, 5, and 10 μM was added the wells of the respective cells, and culturing was performed for 48 hours. Subsequently, cell proliferation was examined by MTT assay using a Cell Proliferation Kit I (Roche Applied Science).
(§3) First, JeKo-1 cells were seeded in a 96-well plate at 1×10^4 cells/well/100 μL. Subsequently, irinotecan at a final concentration of 0 (control), 0.5, 1, 5, 10, 20, and 30 μM was added to the wells of the cells and culturing was performed for 48 hours. In addition, Panc-1 cells were seeded in a 96-well plate at 3×10^3 cells/well/100 μL. Subsequently, irinotecan at a final concentration of 0 (control), 0.5, 1, 5, 10, 20, 30, and 50 μM was added to the wells of the cells and culturing was performed for 48 hours. Subsequently, cell proliferation was examined by MTT assay using a Cell Proliferation Kit I (Roche Applied Science).

Panc-1 cells = assay: MTT assay, Panc-1 cells; conditions: irinotecan, 48 hours
Experimental: as §1, §2, §3

Structure (SMILES) | inhibition of proliferation of the BALL-1 cells (BALL-1 cells) | proliferation inhibition of JeKo-1 cells (JeKo-1 cells; 1 to 20 μM of irinotecan) | IC50 (JeKo-1 cells; Homo sapiens, JeKo-1, MTT assay, read-out: IC50 with respect to the JeKo-1 cells) [µM] | resistance of Panc-1 cells (Panc-1 cells)
CCCCC/C=C/C=C/C(=O)O[C@H]1C(C)=C[C@]23C(=O)[C@@H](C=C(COC(C)=O)[C@@H](O)[C@]12O)[C@H]1[C@@H](C[C@H]3C)C1(C)C [3EE,20Ac-ingenol] | a significant level of inhibition of proliferation | – | – | –
CCc1c2c(nc3ccc(OC(=O)N4CCC(N5CCCCC5)CC4)cc13)-c1cc3c(c(=O)n1C2)COC(=O)[C@]3(O)CC [irinotecan, reference compound] | – | grown cells were almost eliminated | 5 | showed resistance
CC1=C[C@]23C(=O)[C@@H](C=C(CO)[C@@H](O)[C@]2(O)[C@H]1O)[C@H]1[C@@H](C[C@H]3C)C1(C)C [ingenol, reference compound] | little effect on proliferation | – | – | –
CC(=O)OCC1=C[C@@H]2C(=O)C3(C=C(C)[C@H](O)[C@@]3(O)[C@@H]1O)[C@H](C)C[C@@H]1[C@H]2C1(C)C [20Ac-ingenol] | inhibition of proliferation of the BALL-1 cells was observed | – | – | –
